Data on one compound can be found in US4971965A, “Antibiotics TAN-1057” (Takeda Chemical Industries, Ltd., priority 1988, dated 1990).

≈ marks a conversion by molar mass, not a printed value.

Data set [1] has as its system Clostridium perfringens PB6K. Put plainly: microbe, parasite or virus in culture. Format: cell-based. As to conditions: 18 h.
Data set [2] in a line: Conversion in aqueous solution. Format: physicochemical. To be noted: room temperature. The text has this:
For example, in case that the mixture of TAN-1057A and B is isolated as crystals of the sulfate, the ratio of TAN-1057A and B is about 6 to 8:4 to 2.
The term "Antibiotics TAN-1057" in the present specification includes also a mixture which contains TAN-1057A, B, C and D in an optional combination and an optional ratio thereof.

Data set [3] has as its system Staphylococcus aureus 308A-1. Put plainly: Therapeutic effect on infectious disease in mice (Table 5). It counts as in vivo.
Data set [4] deals with Mycoplasma garisepticum S6. Put plainly: MIC against Mycoplasma (Table 3). Format: cell-based. To be noted: S6, 120 h, 10^6 CFU/ml, Hayflick medium, 37° C., 5 days. The text has this: | Inoculum size: 10^6 CFU/ml
In data set [5] the test system is Staphylococcus aureus N129. Put plainly: Antibacterial activity against clinically isolated S. aureus (agar dilution MIC, Table 2). Format: cell-based. To be noted: Staphylococcus aureus; strain N129; agar dilution; Mueller Hinton medium; 10^6 CFU/ml; read-out: MIC. The protocol:
(§1) DMPPC: Methicillin, KM: Kanamycin, GM: Gentamycin, EM: Erythromycin (Note
(§2) Determined by the agar dilution method. Medium: Mueller Hinton medium
(§3) (Difco, USA) Inoculum Size: 10^6 CFU/ml, 37° C.
In general terms: In agar dilution, organisms are placed on agar that contains the substance at set levels.

The test system of a further data set is Staphylococcus aureus C7. The description is as above. Format: cell-based. To be noted: Staphylococcus aureus; strain C7; agar dilution; Mueller Hinton medium; 10^6 CFU/ml; read-out: MIC. How it is done: as §1, §2, §3
Data set [6] deals with Staphylococcus aureus N235. The data set is described as above. Format: cell-based. To be noted: Staphylococcus aureus; strain N235; agar dilution; Mueller Hinton medium; 10^6 CFU/ml; read-out: MIC. The protocol: as §1, §2, §3
The test system of data set [7] is Staphylococcus aureus N91. Described as above. Format: cell-based. As to conditions: Staphylococcus aureus; strain N91; agar dilution; Mueller Hinton medium; 10^6 CFU/ml; read-out: MIC. The protocol:
as §1, §2, §3

Data set [8] has as its system Staphylococcus aureus N62. The description is as above. To be noted: Staphylococcus aureus; strain N62; agar dilution; Mueller Hinton medium; 10^6 CFU/ml; read-out: MIC. Format: cell-based. How it is done: as §1, §2, §3
Data set [9] concerns Staphylococcus aureus N247-21. The data set is described as above. Format: cell-based. As to conditions: Staphylococcus aureus, N24721; strain N247-21; agar dilution; Mueller Hinton medium; 10^6 CFU/ml; read-out: MIC. The protocol: as §1, §2, §3
Data set [10] has as its system Staphylococcus aureus N51. Described as above. Format: cell-based. As to conditions: Staphylococcus aureus; strain N51; agar dilution; Mueller Hinton medium; 10^6 CFU/ml; read-out: MIC. The protocol: as §1, §2, §3
In data set [11] the test system is Staphylococcus aureus N176-6. Described as above. It counts as cell-based. As to conditions: Staphylococcus aureus, N1766; strain N176-6; agar dilution; Mueller Hinton medium; 10^6 CFU/ml; read-out: MIC. The protocol: as §1, §2, §3
Data set [12] concerns Staphylococcus aureus N28. The data set is described as above. As to conditions: Staphylococcus aureus; strain N28; agar dilution; Mueller Hinton medium; 10^6 CFU/ml; read-out: MIC. It counts as cell-based. The protocol: as §1, §2, §3
Data set [13] relates to Staphylococcus aureus N247-16. The data set is described as above. Format: cell-based. To be noted: Staphylococcus aureus, N24716; strain N247-16; agar dilution; Mueller Hinton medium; 10^6 CFU/ml; read-out: MIC. The protocol: as §1, §2, §3
For data set [14], the system named is Staphylococcus aureus N83. The data set is described as above. It counts as cell-based. As to conditions: Staphylococcus aureus; strain N83; agar dilution; Mueller Hinton medium; 10^6 CFU/ml; read-out: MIC. The protocol: as §1, §2, §3
In data set [15] the test system is Staphylococcus aureus N176. The description is as above. It counts as cell-based. As to conditions: Staphylococcus aureus; strain N176; agar dilution; Mueller Hinton medium; 10^6 CFU/ml; read-out: MIC. How it is done: as §1, §2, §3
The test system of data set [16] is Staphylococcus aureus N64. The description is as above. It counts as cell-based. As to conditions: Staphylococcus aureus; strain N64; agar dilution; Mueller Hinton medium; 10^6 CFU/ml; read-out: MIC. How it is done: as §1, §2, §3
The test system of data set [17] is Treponema hyodicenterie DJ70PI. Put plainly: MIC against Spirochaeta (Table 3). To be noted: 48 h.
The test system of data set [18] is Lactobacillus acidophilus ATCC 4356. Put plainly: MIC against anaerobic bacteria (Table 3). Format: cell-based. As to conditions: ATCC4356, 10^6 CFU/ml, GAM medium, Gas Pack, 37° C., 18 hours. How it is done: (§4) Inoculum size: 10^6 CFU/ml
(§5) ^Note 1 GAM medium(Nissui),
(§6) Gas Pack (BBL), 37° C., 18 hours

Data set [19] has as its system Eubacterium sp. biurens 515. Put plainly: MIC against anaerobic bacteria (Table 3). Format: cell-based. As to conditions: 10^6 CFU/ml, GAM medium, Gas Pack, 37° C., 18 hours. How it is done: as §4, §5, §6
Data set [20] relates to Fusobacterium necroform VPI 2891. Put plainly: MIC against anaerobic bacteria (Table 3). Format: cell-based. To be noted: VPI2891, 10^6 CFU/ml, GAM medium, Gas Pack, 37° C., 18 hours. The protocol:
as §4, §5, §6

The next data set has as its system Mycoplasma pulmonis M-53. Put plainly: MIC against Mycoplasma (Table 3). To be noted: M53, 120 h.

By ED50 is commonly meant the midpoint of the dose-response relation. Lower therefore signals greater potency. For the compound `CN(C(=O)C[C@@H](N)CCCNC(=N)N)[C@H]1CNC(NC(N)=O)=NC1=O` [TAN-1057A], the MIC came out at 12.5 µg/mL (≈ 35.2 µM) in [1]; 3.13 µg/mL (≈ 8.81 µM) in [4]; 0.39 µg/mL (≈ 1.1 µM) in data set [5]; 0.78 µg/mL (≈ 2.19 µM) in the data set on Staphylococcus aureus C7; 1.56 µg/mL (≈ 4.39 µM) in data set [6]; 0.78 µg/mL (≈ 2.19 µM) in data set [7]. In addition, the MIC in data set [8], in [9], in data set [10], in [11], in data set [12] and in [13] was 0.78 µg/mL (≈ 2.19 µM) each time. Moreover, the MIC in [14] came out at 0.39 µg/mL (≈ 1.1 µM); in [15], 1.56 µg/mL (≈ 4.39 µM); in [16] it was 0.78 µg/mL (≈ 2.19 µM); in data set [17] it was 100 µg/mL (≈ 281 µM); in [18], 6.25 µg/mL (≈ 17.6 µM); in data set [19] it was 12.5 µg/mL (≈ 35.2 µM). Besides, the MIC is 3.13 µg/mL (≈ 8.81 µM) in data set [20] and 0.39 µg/mL (≈ 1.1 µM) in the data set on Mycoplasma pulmonis M-53. The “conversion of TAN-1057A and B into each other” value in data set [2] is recorded as “converted easily each other”. For the same compound, the ED50 was about 1 mg/kg in data set [3] (308A1, ip infection, Oral) and about 0.1 mg/kg in data set [3] (308A1, sc, ip infection, Subcutaneous).
